Where “and” joins values, the source holds several entries; their conditions need not be identical. Identical values can stand only once.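 Grown in 96-well plates, cells were treated for 48 hours with each compound at five concentrations. Insufficient inhibition: endpoint recorded as highest concentration tested. GI50 marks 50% less growth. At the TGI there is no net growth.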 Where a SMILES comes first, the peptide text is derived from it. The star is where a group is joined. Cbz = O=C(OCc1ccccc1)*; Boc = CC(C)(C)OC(=O)*; OBn = c1ccc(CO*)cc1
Assays:
Assay in all cases: inhibition of tumour cell growth, NCI panel, 48 h
OVCAR-3 ovarian = tested on: OVCAR-3 ovarian
MCF7 breast = tested on: MCF7 breast
SF-268 CNS = tested on: SF-268 CNS
HS 578T breast = tested on: HS 578T breast
OVCAR-4 ovarian = tested on: OVCAR-4 ovarian
T-47D breast = tested on: T-47D breast
MDA-N = tested on: MDA-N
MDA-MB-435 = tested on: MDA-MB-435
A498 renal = tested on: A498 renal
UACC-62 melanoma = tested on: UACC-62 melanoma

Row | Compound | TGI (OVCAR-3 ovarian) | TGI (MCF7 breast) | TGI (SF-268 CNS) [µM] | TGI (HS 578T breast) [µM] | TGI (OVCAR-4 ovarian) | TGI (T-47D breast) [µM] | TGI (MDA-N) [µM] | TGI (MDA-MB-435) [µM] | TGI (A498 renal) | TGI (UACC-62 melanoma) | GI50 (OVCAR-3 ovarian) | GI50 (OVCAR-4 ovarian) | GI50 (A498 renal) [µM]
1 | O=C1/C(=C/c2ccccc2[N+](=O)[O-])N=C(c2ccccc2)N1C1Nc2cc3c(cc2S1)NC(N1C(=O)/C(=C/c2ccccc2[N+](=O)[O-])N=C1c1ccccc1)S3 (configuration not stated) | > 100 µM | > 100 µM | > 100 | > 100 | > 100 µM | > 100 | > 100 | > 100 | > 100 µM | – | – | – | –
2 | c1ccc2c(c1)CCc1cc3cc4c(nc3nc1-2)-c1ccccc1CC4 | > 100 µM | – | > 100 | – | – | – | – | – | – | > 100 µM | – | – | –
3 | O=C(c1ccccc1)c1ccc2nc(-c3c(Cl)c(Cl)c(Cl)c(Cl)c3C(=O)N/N=C/c3ccccc3)[nH]c2c1 | 54.3 µM | 41.9 µM | > 100 | > 100 | 83.5 µM | 74.3 | 93.7 | 90.8 | – | – | – | – | –
4 | NC(=O)C#CC(N)=O | 90.2 µM and 66.5 µM and > 100 µM | 48.5 µM and 56.8 µM | – | – | 87.5 µM and 55 µM and > 100 µM | – | – | – | 197 µM and 154 µM and > 100 µM | 28.4 µM and 29.5 µM and 43 µM | 26.5 µM and 22.8 µM and > 100 µM | 30.7 µM and 21.6 µM and > 100 µM | 71
5 | Cc1nc2ccc(S(=O)(=O)O)cc2c(=O)n1-c1ccc(C(=O)NN2C(=O)C(Cl)C2c2ccccc2O)cc1 (configuration not stated) | > 100 µM | > 100 µM | > 100 | > 100 | > 100 µM | > 100 | > 100 | > 100 | > 100 µM | – | – | – | –
6 | C1CCC(OC2CSC2)OC1 (configuration not stated) | > 100 µM | > 100 µM | > 100 | > 100 | > 100 µM | > 100 | > 100 | > 100 | > 100 µM | – | – | – | –
7 | N#Cc1c(N2CCCC2)ncn(Cc2ccccc2)c1=O | > 100 µM | – | > 100 | > 100 | > 100 µM | > 100 | > 100 | > 100 | > 100 µM | > 100 µM | – | – | –
8 | COC(=O)C(Cc1ccc(O)cc1)NC(=O)C(CC(=O)OCc1ccccc1)NC(=O)OCc1ccccc1 (configuration not stated) (Cbz-Asp(OBn)-Tyr-OMe; configuration not given here) | – | – | – | 69.6 | – | 40 | 35.7 | – | 62.4 µM | – | – | – | –
9 | CC(NC(=O)C(NC(=O)OC(C)(C)C)C(C)C)C(=O)N1CCCC1C(=O)NCC(=O)NC(C(=O)NCC(=O)OCc1ccccc1)C(C)C (configuration not stated) (Boc-VAPGVG-OBn; configuration not given here) | > 100 µM | > 100 µM | > 100 | – | > 100 µM | > 100 | > 100 | > 100 | > 100 µM | > 100 µM | – | – | –
10 | CC(C)c1ccc(/C=C2\CSCC3=C2NC(=S)NC3c2ccc(C(C)C)cc2)cc1 (configuration not stated) | > 100 µM | > 100 µM | > 100 | – | > 100 µM | > 100 | > 100 | – | – | > 100 µM | – | – | –
11 | CCOc1nc(-c2ccccc2)cc(-c2ccc(N3CCOCC3)cc2)c1C#N | > 100 µM | > 100 µM | > 100 | > 100 | > 100 µM | – | > 100 | > 100 | > 100 µM | – | – | – | –
12 | CC(CO)C1C[C@H](O)[C@@]2(C)CC(=O)C=C(CO)[C@@H]2C1 (some centres not stated) | > 100 µM | > 100 µM | > 100 | – | > 100 µM | > 100 | > 100 | > 100 | > 100 µM | > 100 µM | – | – | –

From PubChem BioAssay (NCI)
